Experimental data: patent publication US7803930B2, “Antisense modulation of apolipoprotein B-expression” (Isis Pharmaceuticals, Inc., priority 2002, dated 2010)
In the oligonucleotide strings, read from the 5' end, every base follows the letter of its sugar. An asterisk marks phosphorothioate; unmarked linkages are phosphodiester. Other units and linkages are bracketed, terminal groups are in braces. A string of capitals states the bases alone. e = 2'-O-(2-methoxyethyl) (MOE); [5mC] = 5-methylcytosine; d = 2'-deoxy (DNA)

Experiments:
[1] = High fat fed mice (Example 65): ALT and AST levels; type: in vivo, mouse
Protocol: (§1) Male C57Bl/6 mice were divided into the following groups, consisting of 5 animals each: (1) mice on a lean diet, injected with saline (lean control); (2) mice on a high fat diet; (3) mice on a high fat diet injected with 50 mg/kg of the control oligonucleotide 141923 (SEQ ID NO: 858); (4) mice on a high fat diet given 20 mg/kg atorvastatin calcium (Lipitor®, Pfizer Inc.); (5) mice on a high fat diet injected with 10, 25 or 50 mg/kg ISIS 147764 (SEQ ID NO: 109). Saline and oligonucleotide treatments were administered intraperitoneally twice weekly for 6 weeks. Atorvastatin was administered daily for 6 weeks. At study termination, liver samples were isolated from each animal and RNA was isolated for Northern blot qualitative assessment, DNA microarray and quantitative real-time PCR. Northern blot assessment and quantitative real-time PCR were performed as described by other examples herein.
(§2) Mouse apolipoprotein B mRNA and serum cholesterol levels, measured as described herein, were evaluated to confirm antisense inhibition by ISIS 147764 and ISIS 147483. […] The 50 mg/kg dose of ISIS 147483 increased ALT and AST levels.

[2] = ob/ob mice (Example 50): cholesterol, lipid, triglyceride, liver enzyme and glucose levels; type: in vivo, mouse; details: high fat high cholesterol diet, 50 mg/kg i.p. twice a week, six weeks
Protocol: (§3) Ob/ob mice receiving a high fat, high cholesterol diet (60% kcal fat supplemented with 0.15% cholesterol) were treated with one of several oligonucleotides to evaluate their effect on apolipoprotein B-related phenotypic endpoints in ob/ob mice. After overnight fasting, mice from each group were dosed intraperitoneally twice a week with 50 mg/kg of ISIS 147483 (SEQ ID NO: 79), or 147764 (SEQ ID NO: 109), or the controls ISIS 116847 (SEQ ID NO: 857), or 141923 (SEQ ID NO: 858), or saline for six weeks. At study termination and forty eight hours after the final injections, animals were sacrificed and evaluated for target mRNA levels in liver, cholesterol and triglyceride levels, liver enzyme levels, serum glucose levels, and PTEN levels.

apolipoprotein B mRNA [3] = assay: ob/ob mice (Example 50): apolipoprotein B mRNA levels in liver; type: in vivo, mouse; details: high fat high cholesterol diet, 50 mg/kg i.p. twice a week, six weeks
Protocol: as §3

[4] = system: mouse apolipoprotein B mRNA; assay: High fat fed mice (Example 65): mouse apolipoprotein B mRNA and serum cholesterol levels; type: in vivo
Protocol: as §1, §2

[5] = Lean mice, 6 weeks (Example 66): serum lipids and liver enzymes; type: in vivo, mouse; details: serum
Protocol: (§4) The accumulation of lipids in liver tissue was also evaluated in lean mice. Male […] mice (Charles River Laboratories (Wilmington, Mass.) at 6 to 7 weeks of age were maintained on a standard rodent diet and were treated twice weekly with intraperitoneal injections of 25 or 50 mg/kg 147764 (SEQ ID NO: 109) or 147483 (SEQ ID NO: 79) for 6 weeks. Saline treated animals served as controls. Each treatment group was comprised of 4 animals. Animals were sacrificed after the 6 week treatment period, at which point liver tissue and serum were collected.
Total cholesterol, LDL-cholesterol, HDL-cholesterol and triglycerides in serum were measured by routine clinical analysis using an Olympus Clinical Analyzer (Olympus America Inc., Melville, N.Y.). The liver enzymes ALT and […] in serum were also measured using the Olympus Clinical Analyzer.

apolipoprotein B mRNA [6] = assay: Lean mice, 6 weeks (Example 66): apolipoprotein B mRNA; type: in vivo, mouse
Protocol: as §4
Apolipoprotein B mRNA levels were measured by real-time PCR as described by other examples herein. The data, shown in Table 51, represent the average of 4 animals and are presented as inhibition relative to saline treated controls.

ATGTCAATGCCACATGTCCA (antisense eA*eT*eG*eT*e[5mC]*dA*dA*dT*dG*d[5mC]*d[5mC]*dA*d[5mC]*dA*dT*eG*eT*e[5mC]*e[5mC]*eA) [ISIS 147483]
ALT and AST levels ([1]; 50 mg/kg): increased | ALT or AST levels ([1]; 10 and 25 mg/kg): did not significantly elevate | glucose, cholesterol, and triglyceride levels [2]: able to lower | apolipoprotein B mRNA levels (apolipoprotein B mRNA [3]): able to lower | mouse apolipoprotein B mRNA and serum cholesterol levels [4]: lowered in a dose-dependent manner | HDL-cholesterol ([5]; 25 mg/kg i.p. twice weekly): 117 mg/dL | LDL-cholesterol ([5]; 25 mg/kg i.p. twice weekly): 26 mg/dL | Liver Enzymes ALT ([5]; 25 mg/kg i.p. twice weekly): 73 IU/L | Liver Enzymes AST ([5]; 25 mg/kg i.p. twice weekly): 78 IU/L | Total cholesterol ([5]; 25 mg/kg i.p. twice weekly): 153 mg/dL | Triglycerides ([5]; 25 mg/kg i.p. twice weekly): 138 mg/dL | HDL-cholesterol ([5]; 50 mg/kg i.p. twice weekly): 131 mg/dL | LDL-cholesterol ([5]; 50 mg/kg i.p. twice weekly): 39 mg/dL | Liver Enzymes ALT ([5]; 50 mg/kg i.p. twice weekly): 57 IU/L | Liver Enzymes AST ([5]; 50 mg/kg i.p. twice weekly): 72 IU/L | Total cholesterol ([5]; 50 mg/kg i.p. twice weekly): 183 mg/dL | Triglycerides ([5]; 50 mg/kg i.p. twice weekly): 127 mg/dL | % Inhibition apolipoprotein B mRNA (apolipoprotein B mRNA [6]; 25 mg/kg i.p. twice weekly): 79% | % Inhibition apolipoprotein B mRNA (apolipoprotein B mRNA [6]; 50 mg/kg i.p. twice weekly): 91% | inhibition of apolipoprotein B mRNA expression (apolipoprotein B mRNA [6]; 25 or 50 mg/kg i.p. twice weekly): in a dose-dependent manner
